# From patent publication US20230365592A1 (Agios Pharmaceuticals, Inc., priority 2022, published 2023)
# Biological target: T1, human PAH with the R408W mutation (Homo sapiens, UniProt P00439, R408W)
# T1 construct: expressed in transfected cells
# T1 sequence (P00439 1-452 R408W): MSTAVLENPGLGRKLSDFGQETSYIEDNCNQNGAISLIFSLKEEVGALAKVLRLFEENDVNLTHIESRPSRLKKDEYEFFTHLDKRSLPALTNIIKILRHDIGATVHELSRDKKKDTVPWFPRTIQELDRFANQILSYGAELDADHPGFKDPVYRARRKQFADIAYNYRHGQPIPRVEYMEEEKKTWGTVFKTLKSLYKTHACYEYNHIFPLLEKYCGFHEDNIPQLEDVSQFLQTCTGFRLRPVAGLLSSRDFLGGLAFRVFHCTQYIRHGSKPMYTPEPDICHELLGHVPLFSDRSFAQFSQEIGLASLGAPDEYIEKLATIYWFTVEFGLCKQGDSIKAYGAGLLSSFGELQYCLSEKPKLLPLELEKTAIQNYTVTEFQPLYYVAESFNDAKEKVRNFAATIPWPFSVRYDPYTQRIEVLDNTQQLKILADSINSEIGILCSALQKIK
# Experiment: Cell Based Phenylalanine Flux Assay;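 also: after compound treatment, cells received sepiapterin plus isotope-labelled Phenylalanine for 4 hours, then labelled Tyrosine in the medium was quantified, 10-point 2-fold dilution series run in duplicate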
# Conditions: A375 cells expressing R408W PAH; 24 hrs with compound, then 20 µM sepiapterin and 800 µM 13C9,15N-Phenylalanine for 4 hours; 13C-Tyrosine by LC-MS; average where tested multiple times; read-out: AC50
row,AC50 [µM],Structure (SMILES)
1,1 to 5,Cc1nnc(C(=O)N2CCc3[nH]cnc3C2c2cc3cc(C(F)(F)F)ccn3n2)o1 (centres unmarked)
2,1 to 5,COCc1ccc2c(C(=O)N3CCc4[nH]cnc4C3c3cc4c(C(F)F)cccn4n3)cnn2c1 (centres unmarked)
3,> 5,CC(C)(C)c1nnc(N2CCc3[nH]cnc3C2c2cc3c(F)cccn3n2)o1 (centres unmarked)
4,1 to 5,O=C(c1cnn2cc(C3CC3)ccc12)N1CCc2[nH]cnc2C1c1cc2cccc(C(F)(F)F)n2n1 (centres unmarked)
5,1 to 5,Cc1nnc(C(=O)N2CCc3[nH]cnc3C2c2cc3cc(F)ccn3n2)o1 (centres unmarked)
6,> 5,Cc1ccn2nc(C3c4nc[nH]c4CCN3C(=O)c3nnc(-c4ccn(C)n4)o3)cc2c1 (centres unmarked)
7,> 5,CC(C)(O)c1nnc(C(=O)N2CCc3[nH]cnc3C2c2cc3cc(C(F)(F)F)ccn3n2)o1 (centres unmarked)

row,Structure (SMILES),AC50 [µM]
1,"O=C(c1ocnc1C1CC1)N1CCc2[nH]cnc2[C@@H]1c1cc2cccc(C(F)(F)F)n2n1 (single isomer, unassigned)",> 5

# Same assay, conditions: A375 cells expressing human PAH R408W; 24 hrs compound incubation; 13C-Tyrosine by LC-MS; average where tested multiple times; read-out: AC50
row,AC50 [µM],Structure (SMILES)
1,0.5 to 1,"Cc1cccc2cc([C@@H]3c4nc[nH]c4CCN3c3nnc(C(F)(F)F)o3)nn12 [Example 1850, (S)-2-(4-(7-methylpyrazolo[1,5-a]pyridin-2-yl)-6,7-dihydro-1H-imidazo[4,5-c]pyridin-5(4H)-yl)-5-(trifluoromethyl)-1,3,4-oxadiazole]"
2,> 5,"CC(F)(F)c1nnc(N2CCc3[nH]cnc3[C@@H]2c2cc3c(C(F)F)cccn3n2)o1 [Example 2202, (R)-2-(1,1-difluoroethyl)-5-(4-(4-(difluoromethyl)pyrazolo[1,5-a]pyridin-2-yl)-1,4,6,7-tetrahydro-5H-imidazo[4,5-c]pyridin-5-yl)-1,3,4-oxadiazole]"
3,1 to 5,"Cc1cc(-c2nnc(C(=O)N3CCc4[nH]cnc4[C@H]3c3cc4c(C)cccn4n3)o2)n[nH]1 [Example 2291, (S)-(5-(5-methyl-1H-pyrazol-3-yl)-1,3,4-oxadiazol-2-yl)(4-(4-methylpyrazolo[1,5-a]pyridin-2-yl)-1,4,6,7-tetrahydro-5H-imidazo[4,5-c]pyridin-5-yl)methanone]"
4,> 5,"Cn1cc(-c2ccc3c(C(=O)N4CCc5[nH]cnc5[C@@H]4c4cc5c(F)cccn5n4)cnn3c2)cn1 [Example 2435, (R)-(4-(4-fluoropyrazolo[1,5-a]pyridin-2-yl)-6,7-dihydro-1H-imidazo[4,5-c]pyridin-5(4H)-yl)(6-(1-methyl-1H-pyrazol-4-yl)pyrazolo[1,5-a]pyridin-3-yl)methanone]"
5,< 0.5,"Cn1ccc(-c2nnc(C(=O)N3CCc4[nH]cnc4[C@H]3c3cc4c(Br)cccn4n3)o2)n1 [Example 1889, (S)-(4-(4-bromopyrazolo[1,5-a]pyridin-2-yl)-1,4,6,7-tetrahydro-5H-imidazo[4,5-c]pyridin-5-yl)(5-(1-methyl-1H-pyrazol-3-yl)-1,3,4-oxadiazol-2-yl)methanone]"
6,> 5,"Fc1cccn2nc([C@H]3c4nc[nH]c4CCN3c3nnc(-c4ccncn4)o3)cc12 [Example 2179, (R)-2-(4-(4-fluoropyrazolo[1,5-a]pyridin-2-yl)-1,4,6,7-tetrahydro-5H-imidazo[4,5-c]pyridin-5-yl)-5-(pyrimidin-4-yl)-1,3,4-oxadiazole]"
7,> 5,"COc1ccc2c(C(=O)N3CCc4[nH]cnc4[C@@H]3c3cc4c(C)cccn4n3)cnn2c1 [Example 2451, (R)-(6-methoxypyrazolo[1,5-a]pyridin-3-yl)(4-(4-methylpyrazolo[1,5-a]pyridin-2-yl)-6,7-dihydro-1H-imidazo[4,5-c]pyridin-5(4H)-yl)methanone]"
8,> 5,"O=C(c1cnc(-c2ccccn2)o1)N1CCc2[nH]cnc2[C@@H]1c1cc2c(F)cccn2n1 [Example 2033, (R)-(4-(4-fluoropyrazolo[1,5-a]pyridin-2-yl)-1,4,6,7-tetrahydro-5H-imidazo[4,5-c]pyridin-5-yl)(2-(pyridin-2-yl)oxazol-5-yl)methanone]"

# Same assay, conditions: A375 cells expressing human R408W PAH; 24 hrs compound incubation; 13C-Tyrosine by LC-MS; average where tested multiple times; read-out: AC50
row,AC50 [µM],Structure (SMILES)
1,1 to 5,"Cn1ccc(-c2nnc(C(=O)N3CCc4[nH]cnc4[C@@H]3c3cc4cccc(F)n4n3)o2)n1 [Example 1457, (R)-(4-(7-fluoropyrazolo[1,5-a]pyridin-2-yl)-6,7-dihydro-1H-imidazo[4,5-c]pyridin-5(4H)-yl)(5-(1-methyl-1H-pyrazol-3-yl)-1,3,4-oxadiazol-2-yl)methanone]"
2,> 5,"Cc1cccc2cc([C@H]3c4nc[nH]c4CCN3C(=O)c3nnc(-c4cnccn4)o3)nn12 [Example 1338, (R)-(4-(7-methylpyrazolo[1,5-a]pyridin-2-yl)-6,7-dihydro-1H-imidazo[4,5-c]pyridin-5(4H)-yl)(5-(pyrazin-2-yl)-1,3,4-oxadiazol-2-yl)methanone]"
3,0.5 to 1,"Cc1nnc(C(=O)N2CCc3[nH]cnc3[C@H]2c2cc3c(C)cccn3n2)o1 [Example 1010, (S)-(5-methyl-1,3,4-oxadiazol-2-yl)(4-(4-methylpyrazolo[1,5-a]pyridin-2-yl)-6,7-dihydro-1H-imidazo[4,5-c)pyridin-5(4H)-yl)methanone]"
4,> 5,"O=C(c1ccnn1C(F)F)N1CCc2[nH]cnc2[C@@H]1c1cc2ccccn2n1 [Example 657, (R)-(1-(difluoromethyl)-1H-pyrazol-5-yl)(4-(pyrazolo[1,5-a]pyridin-2-yl)-6,7-dihydro-1H-imidazo[4,5-c]pyridin-5(4H)-yl)methanone]"
5,> 5,"COc1cccn2nc([C@H]3c4nc[nH]c4CCN3C(=O)c3nnc(C4CC4)o3)cc12 [Example 1169, (R)-(5-cyclopropyl-1,3,4-oxadiazol-2-yl)(4-(4-methoxypyrazolo[1,5-a]pyridin-2-yl)6,7-dihydro-1H-imidazo[4,5-c]pyridin-5(4H)-yl)methanone]"
6,> 5,"Cc1cccc2cc([C@H]3c4nc[nH]c4CCN3C(=O)c3nnc(C4CC4)o3)nn12 [Example 941, (R)-(5-cyclopropyl-1,3,4-oxadiazol-2-yl)(4-(7-methylpyrazolo[1,5-a]pyridin-2-yl)-6,7-dihydro-1H-imidazo[4,5-c]pyridin-5(4H)-yl)methanone]"
7,< 0.5,"Cc1ncccc1-c1nnc(C(=O)N2CCc3[nH]cnc3[C@H]2c2cc3cccc(C)n3n2)o1 [Example 1358, (S)-(4-(7-methylpyrazolo[1,5-a]pyridin-2-yl)-6,7-dihydro-1H-imidazo[4,5-c]pyridin-5(4H)-yl)(5-(2-methylpyridin-3-yl)-1,3,4-oxadiazol-2-yl)methanone]"
8,0.5 to 1,"COc1ccc(-c2nnc(C(=O)N3CCc4[nH]cnc4[C@H]3c3cc4cccc(C(F)F)n4n3)o2)nc1 [Example 1578, (S)-(4-(7-(difluoromethyl)pyrazolo[1,5-a]pyridin-2-yl)-6,7-dihydro-1H-imidazo[4,5-c]pyridin-5(4H)-yl)(5-(5-methoxypyridin-2-yl)-1,3,4-oxadiazol-2-yl)methanone]"
9,1 to 5,"O=C(c1oc(C2(O)CC2)nc1C(F)F)N1CCc2[nH]cnc2[C@@H]1c1cc2cccc(Cl)n2n1 [Example 1237, (R)-(4-(7-chloropyrazolo[1,5-a]pyridin-2-yl)-6,7-dihydro-1H-imidazo[4,5-c]pyridin-5(4H)-yl)(4-(difluoromethyl)-2-(1-hydroxycyclopropyl)oxazol-5-yl)methanone]"
10,< 0.5,"Cc1cccn2nc([C@@H]3c4nc[nH]c4CCN3C(=O)c3oc(C(C)(C)O)nc3C(F)F)cc12 [Example 736, (S)-(4-(difluoromethyl)-2-(2-hydroxypropan-2-yl)oxazol-5-yl)(4-(4-methylpyrazolo[1,5-a]pyridin-2-yl)-6,7-dihydro-1H-imidazo[4,5-c]pyridin-5(4H)-yl)methanone]"
